In data set [1] the test system is HT29 cells. As to the kind of experiment: Inhibition of necroptosis of HT29 cells (CTG method). Type of data set: cell-based. Particulars: Homo sapiens, HT-29, TZA mixture (TNFα, Z-VAD-FMK, AT-406) 24 h, CellTiter-Glo, read-out: IC50, inhibitory effect on necroptosis of HT29 cells. The procedure: Test Example 1: Inhibitory Effects of Compounds of the Present Disclosure on Necroptosis of HT29 Cells
The CTG method was used for detecting the inhibitory effects of the compounds of the present disclosure on the necroptosis of HT29 cells. The specific procedures are as follows:
HT29 cells were purchased from American Type Culture Collection (ATCC, HTB-38) and cultured with a McCoy's 5A medium (10% FBS) in a 37° C. incubator with 5% carbon dioxide. The cell culture density was maintained at 2×10^4 to 8×10^4 cells/cm^2, and the cells were passaged 2-3 times a week.
• a. Test compounds were dissolved in DMSO to 2 mM. • b. The compounds were 3-fold diluted from an initial concentration of 2 mM to 10 gradient concentrations. • c. All concentrations of compounds were 100-fold diluted with the culture medium for later use.
• a. The cells were counted, and the cell density was adjusted to 1×10^5 cells/mL with a fresh culture medium. • b. The cells were seeded in a 96-well plate at 80 µL/well and cultured at 37° C. overnight. • c. […] After the culture plate was left to stand at room temperature for 0.5 h, a stable luminescence signal was obtained, and then the plate was read using a microplate reader. • g. The IC50 values of the compounds of the present disclosure were calculated by the Graphpad software.
For orientation: ATP-based viability assays read luminescence as a measure of living cells.

For data set [2], the target named is RIPK1 kinase (Homo sapiens (Human), UniProt Q13546). Description: RIPK1 kinase inhibition (ADP-Glo method). Type of data set: biochemical. The settings on record: ATP and MBP substrate, 90 min, read-out: IC50, inhibitory activity against RIPK1 kinase. The text has this: Test Example 2: Inhibitory Activities of Compounds of the Present Disclosure Against RIPK1 Kinase (ADP-Glo Method)
The ADP GLO method was used for detecting the inhibitory activities of the compounds of the present disclosure against RIPK1 kinase. The method is specifically as follows:
• 1) RIPK1 kinase reaction system (containing RIPK1 kinase, MBP, 5× reaction buffer, MnCl2 and DTT) (Promega, VA7592) • 2) ADP-Glo kinase detection kit (containing ADP-Glo reagent and kinase detection reagents) (Promega, V9101) • 3) ATP solution (10 mM) (Thermofisher PV3227) • 4) 96-well small-volume white plate (Cisbio, 66PL96100) • 5) PHERA star microplate reader (BMG labtech)
• a. Reaction buffer: a reaction buffer containing DTT at a final concentration of 50 μM and MnCl2 at a final concentration of 4 mM was prepared using 5× reaction buffer; • b. RIPK1 kinase solution: a RIPK1 kinase solution at a final concentration of 10 ng/μL was prepared using the reaction buffer; • c. […]
• a. […] The plate was read using the PHERA star microplate reader, and relative luminescence unit (RLU) values were recorded. • g. Plotting was performed using the Graphpad software, and the IC50 values of the compounds of the present disclosure were calculated.
In general terms: ADP-Glo turns the ADP formed in a reaction into a luminescent signal.

The nature of data set [3]: Pharmacokinetic evaluation in beagles after intragastric administration. The data set is classed as in vivo. The settings on record: both sexes, beagle, dog, plasma, po, 2 mg/kg. The procedure: Test Example 3: Pharmacokinetic Evaluation of Compound of the Present Disclosure in Dogs
Beagles were used as test animals. Plasma concentrations of the compound of Example 2 at different time points after intragastric administration of Example 2 compound to beagles were determined using an LC/MS/MS method. The pharmacokinetic performance of the compound of the present disclosure was studied in beagles and its pharmacokinetic profile was evaluated.
Eight beagles were provided by Jiangsu Johnbio Biotechnology Co., Ltd., with an equal number of males and females. The production license number was SCXK (Jiangsu) 2018-0005.
A certain amount of the compound of Example 2 was weighed out, and 5% DMSO+30% PG+30% PEG400+35% normal saline were added to prepare a 0.4 mg/mL clear solution.
The compound of Example 2 was administered at a dose of 2 mg/kg with a volume of 5 mL/kg.
The compound of Example 2 was intragastrically administered to the beagles. 0.5 mL of blood samples were collected from the forelimb vein 0 h before administration and 15 min, 30 min, 1.0 h, 2.0 h, 4.0 h, 6.0 h, 8.0 h, 11.0 h, and 24.0 h after administration. The blood samples were placed into EDTA-K2 anticoagulation test tubes and centrifuged at 10,000 rpm for 2 min (4° C.), and plasma was separated within 1 h and stored in a −80° C. refrigerator/dry ice before analysis. Two hours after administration, feeding was resumed.
After the administration of the compound of Example 2, the plasma concentrations of the compound of Example 2 in the beagles were determined: 50 μL of the beagle plasma at each time point after the administration was taken, and 25 μL of internal standard solution ([…] camptothecin) and 450 μL of acetonitrile were added, and the mixture was vortexed and centrifuged at 3700 rpm for 10 min. 0.5 μL of supernatant was collected for LC/MS/MS analysis.

We go through 2 compounds from patent US20250197390A1, “FUSED HETEROCYCLIC COMPOUND, AND PREPARATION METHOD THEREFOR AND MEDICAL USE THEREOF” (Jiangsu Hengrui Pharmaceuticals Co., Ltd., priority 2022, published 2025).

The structures appear in SMILES notation.

Chain of RIPK1 kinase (Q13546 1-327): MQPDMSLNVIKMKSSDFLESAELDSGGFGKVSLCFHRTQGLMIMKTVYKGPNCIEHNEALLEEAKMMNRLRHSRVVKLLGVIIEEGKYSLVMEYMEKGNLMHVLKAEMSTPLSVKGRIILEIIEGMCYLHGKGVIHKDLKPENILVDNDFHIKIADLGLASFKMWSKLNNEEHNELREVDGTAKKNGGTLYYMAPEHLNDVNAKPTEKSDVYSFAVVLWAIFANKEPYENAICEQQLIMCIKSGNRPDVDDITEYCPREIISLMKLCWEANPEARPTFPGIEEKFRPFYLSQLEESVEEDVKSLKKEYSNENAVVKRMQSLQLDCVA

Regarding `Nc1nc2cc(-c3ccc4c(c3)C(=O)N(Cc3cc(OC(F)(F)F)ccc3F)CCO4)ccn2n1` [Example 1, 7-(2-Amino-[1,2,4]triazolo[1,5-a]pyridin-7-yl)-4-(2-fluoro-5-(trifluoromethoxy)benzyl)-3,4-dihydrobenzo[f][1,4]oxazepin-5(2H)-one], the IC50 was 13.3 nM in data set [1] and 23 nM in data set [2].

Turning to `Nc1nc2cc(-c3ccc4c(c3)C(=O)N(Cc3cc(OC(F)(F)F)ccc3F)CCC4)ccn2n1` [Example 2, 8-(2-Amino-[1,2,4]triazolo[1,5-a]pyridin-7-yl)-2-(2-fluoro-5-(trifluoromethoxy)benzyl)-2,3,4,5-tetrahydro-1H-benzo[c]azepin-1-one], the IC50 in data set [1] worked out at 1.5 nM; in data set [2], 2.7 nM. For the same compound, in data set [3] (read-out: Apparent volume of distribution Vz/F), the Vd/F is 0.49 L/kg. Besides, the AUC(0-t) in data set [3] (read-out: Area under curve AUC0-t) turned out to be 51600 ng·h/mL. In data set [3] (read-out: Clearance rate CL/F), the CL/F came out at 0.48 mL/min/kg. Besides, the half-life in data set [3] (read-out: Half-life T1/2 (converted)) was 12.5 h. Moreover, the Cmax in data set [3] (read-out: Plasma concentration Cmax) was determined as 2940 ng/mL. The MRT in data set [3] (read-out: Residence time MRT) amounted to 19.4 h.

By IC50 is commonly meant the concentration needed to halve the response being measured. For orientation: MRT means the average time that molecules of a dose stay in the body.
